Assay results as given in patent US12662707B2, “MYC amplification drives resistance to pan-RAS inhibitors in pancreatic cancer” (The Trustees of Columbia University in the City of New York, priority 2024, dated 2026).

Experiments:
[1] = RMC-7977 levels in KPCY allograft tumor tissue; format: in vivo; settings: C57Bl/6, mouse, oral, 10 mg/kg
Protocol: Body weights were measured twice a week during the study. Tissue was harvested either at 4 hours or 24 hours after last dose and preserved as previously described (See Xenograft studies section). Whole blood, tumor, colon and skin tissue concentrations of RMC-7977 were determined using liquid chromatography-tandem mass spectrometry (LC-MS/MS) methods. […] After thorough mixing and centrifugation, the supernatant was directly analyzed on a Sciex 6500+ triple quadrupole mass spectrometer equipped with an ACQUITY or Shimadzu UPLC system. An ACQUITY UPLC BEH C18 or C4 […] (2.1×50 mm) column was used with gradient elution for compound separation. RMC-7977 and IS (verapamil or terfenadine) were detected by positive electrospray ionization using multiple reaction monitoring (RMC-7977: m/z 865.4/706.4 or m/z 865.3/833.5; verapamil: m/z 455.2/164.9; terfenadine: m/z 472.3/436.4). […] BA analysis on blood and tissue samples from xenograft models was run at Wuxi AppTec. BA analysis on blood and tissue samples from allograft models and GEMM was run at Revolution Medicines.

[2] = Pharmacokinetics in KPF/FC mice (tumor and blood); format: in vivo, mouse
Protocol: Tumor formation in KPF/FC (KrasLSL.G12D/+; p53flox/flox; Pdx1-Cre) mice was monitored by bi-weekly palpations until the detection of a mass, which was then confirmed by ultrasound. Tumor-bearing mice were randomized and assigned into groups (n=3/dose/timepoint). Single dose of RMC-7977 was administered orally at 10 mg/kg, 25 mg/kg and 50 mg/kg. The same vehicle formulation was used for the control group. Whole blood and tissue (tumors and colons) were harvested at indicated time points preserved as previously described (See Xenograft studies section).
Whole blood, tumor, colon and skin tissue concentrations of RMC-7977 were determined using liquid chromatography-tandem mass spectrometry (LC-MS/MS) methods. Tissue samples were homogenized with a 5× or 10× volume of homogenization buffer (methanol/15 mM PBS (1:2; v:v) or 15 mM PBS with 10% methanol). […] After thorough mixing and centrifugation, the supernatant was directly analyzed on a Sciex 6500+ triple quadrupole mass spectrometer equipped with an ACQUITY or Shimadzu UPLC system. […] RMC-7977 and IS (verapamil or terfenadine) were detected by positive electrospray ionization using multiple reaction monitoring (RMC-7977: m/z 865.4/706.4 or m/z 865.3/833.5; verapamil: m/z 455.2/164.9; terfenadine: m/z 472.3/436.4). The lower limit of quantification was 0.5 ng/mL or 2.0 ng/mL for blood, tumor, and other tissue. […]

human PDAC organoids = test: Organoid drug treatment and viability assay; format: cell-based; settings: Matrigel-embedded human PDAC organoids; 6 days
Protocol: Organoids were cultured at 37° C. in 5% CO2. Cells were seeded in growth factor reduced Matrigel (Corning; Cat. #356231) domes and incubated with human organoid medium formulated as follows: Advanced DMEM/F12-based-conditioned medium, 1×B27 supplement, 10 mM HEPES, 2 mM GlutaMAX, 10 mM nicotinamide, 1.25 mM N-acetylcysteine, 50 ng/mL mEGF, 100 ng/mL hFGF10, […] hGastrin I, 500 nM A83-01, Noggin 100 ng/mL, 1×Wnt-3A conditioned 10% FBS DMEM (50% by volume) and 1×R-spondin Conditioned Basal Medium (10% by volume)^52,53
Organoids were dissociated using TrypLE Express (Thermo Fisher, Cat. #12604054) and cells were seeded into ultra-low attachment 384-well plates at 1×10^3 cells per well into […] of culture media, consisting of 10% Matrigel and 90% human organoid medium. […] Cell viability was assessed 6 days post-treatment using a Cell-TiterGlo 3D Cell Viability assay (Promega, G9683), according to the manufacturer's instructions. […] was read using a FLUOstar Omega microplate reader. Technical triplicates were analyzed for each biological replicate and a total of three biological replicates were done for each cell line. CTG assay readouts were plotted as a function of log molar [inhibitor] and a 4-parameter sigmoidal concentration response model was fitted to the data. […]

murine PDAC cell lines = test: Murine cell viability assay; format: cell-based; settings: most murine PDAC cell lines; 72 hours
Protocol: PDAC murine cell lines harboring KrasG12D or KrasG12C mutations were seeded at 2×10^3 in a 96-well plate. Cells were treated 24 hours later with DMSO or serial dilutions of RMC-7977. Cell viability was evaluated 72 hours later by measuring adenosine triphosphate (ATP) levels using the CellTiter-Glo® Luminescent Cell Viability Assay (Promega, G7572) according to the manufacturer's instructions. For experiments comparing naive and resistant cell lines, live cells were fluorescently labelled using Calcein AM (20-minute incubation at 500 nM, Thermo Fisher) and counted using the SpectraMax i3X multimode detection platform (Molecular Devices). Technical triplicates were run for each biological replicate and a total of 3-4 biological replicates was done for each cell line. Growth percentage was calculated by normalizing drug-treated values to DMSO control, which was set to 100%. Four-parameter drug response curves were generated from 3+ biological replicates in GraphPad Prism. Mean±s.d. was plotted for each tested dilution.

For `CCn1c(-c2cc(N3CCN(C4CC4)CC3)cnc2[C@H](C)OC)c2c3cc(ccc31)-c1csc(n1)C[C@H](NC(=O)[C@H]1[C@@H]3COC[C@@H]31)C(=O)N1CCC[C@H](N1)C(=O)OCC(C)(C)C2` [RMC-7977], the half-life [1] was 3.5 h, the “exposure in blood and PDAC tumors compared with CDX tumor-bearing BALB/c mice” value ([2]; KPF/FC mice) was “lower” and the “half-life (t1/2) in KPF/FC tumors compared to CDX tumors” value ([2]; KPF/FC tumors) was “shorter half-life”. For the same compound, the “potency in concentration-response cell viability assays” value (human PDAC organoids) was “low nanomolar potency” and the “potency in concentration-response cell viability assays” value (murine PDAC cell lines) was “low nanomolar potency”.
